Patent US20250282768A1 (Janssen Pharmaceutica NV, priority 2022, published 2025)

Test system: p-IKKa levels in L363 (NIK translocated multiple myeloma) cells
Assay: Assay 2: Effect of compounds on p-IKKa levels in L363 (NIK translocated multiple myeloma) cells
Type: cell-based
Conditions: Homo sapiens, L-363, 6 h, read-out: Assay 2 IC50 (nM), p-IKKa (Ser 176/180) in BAFF stimulated L363 cells with MG132, 6 h; average if tested more than once
Protocol: Assay 2: Effect of Compounds on p-IKKa Levels in L363 (NIK Translocated Multiple Myeloma) Cells
All compounds tested were dissolved and serially diluted in DMSO, 1:3 dilution for 11 points in an Echo compatible plate. 100% DMSO was added to columns 12 and 24 of the plate to serve as high and low signal controls. This compound plate was used to spot 20 nL of compound or DMSO into a Greiner 384 well TC plate (781080). The final DMSO concentration was 0.3% (v/v) in cell assays. Human L363 cells (ATCC) were cultured in RPM11640 medium supplemented with GlutaMax, non-essential amino acids, sodium pyruvate and 10% fetal bovine serum. Cells were routinely maintained at densities of 0.2×10^6 cells per ml—2×10^6 cells per mL at 37° C. in a humidified 5% CO2 atmosphere incubator. Cells were passaged twice a week splitting back to obtain the low density. The day before the assay, cells were washed twice in HBSS (Hank's Balanced Salt Solution), resuspended in Dulbecco's Modified Eagle Medium (DMEM)+0.5% IgG and protease free BSA (Jackson Immuno Research Laboratories), +/−250 ng/ml recombinant human B-cell activating factor (BAFF/BLyS/TNFSF13B) and incubated overnight at 37° C. in a humidified 5% CO2 atmosphere (bulk stimulation with or without BAFF). The next day, the cell concentration was adjusted to 1×10^7 cells/ml in DMEM+/−250 ng/ml BAFF +/−10 μM MG132 and plated at 10 μl/well into compound or DMSO spotted 384 well TC plates. Seeded cells were incubated at 37° C. in a humidified 5% CO2 atmosphere for 6 h. After 6 h, the plates were removed from the incubator and cell lysis was achieved by the addition of 2.5 μl 5×lysis buffer containing protease and phosphatase inhibitors, followed by shaking on a plate shaker at room temperature for 15 min. At the end of this incubation, lysed cells were sequentially treated and incubated with acceptor and donor bead mixes according to the manufacturer's protocol for a 1 plate/2-incubation suspension cell assay (AlphaLISA SureFire Ultra p-IKKa (Ser 176/180) Assay Kit (Perkin Elmer). Plates were read using an EnVision Multilabel Plate Reader (Perkin Elmer). Within an experiment, a concentration response curve for each compound was run in duplicate. The signal obtained in the test wells was normalized using high signal (BAFF stimulated cells, DMSO, MG132) and low signal (unstimulated cells, DMSO) controls. To determine the IC50, a sigmoidal curve was fitted to the plot of % inhibition versus Log10 compound concentration.

| Compound | IC50 |
| --- | --- |
| Cc1oncc1Nc1nccc(-c2cccc(-c3cc([C@]4(O)CCN(C)C4=O)on3)n2)n1 [Example 63, (R)-3-Hydroxy-1-methyl-3-(3-(6-(2-((5-methylisoxazol-4-yl)amino)pyrimidin-4-yl)pyridin-2-yl)isoxazol-5-yl)pyrrolidin-2-one] | < 50 nM |
| CN(C)Cc1cc(Nc2nccc(-c3cccc(-c4cc([C@]5(O)CCN(C)C5=O)on4)n3)n2)nn1C [Example 428, (R)-3-(3-(6-(2-((5-((Dimethylamino)methyl)-1-methyl-1H-pyrazol-3-yl)amino)pyrimidin-4-yl)pyridin-2-yl)isoxazol-5-yl)-3-hydroxy-1-methylpyrrolidin-2-one] | 50 to 500 nM |
| CC1OCCn2ncc(Nc3nccc(-c4cccc(-c5cc([C@@]6(O)C(=O)N(C)CC6(F)F)on5)n4)n3)c21 (single isomer, unassigned) [Example 116, (R)-4,4-Difluoro-3-hydroxy-1-methyl-3-(3-(6-(2-(((*R)-4-methyl-6,7-dihydro-4H-pyrazolo[5,1-c][1,4]oxazin-3-yl)amino)pyrimidin-4-yl)pyridin-2-yl)isoxazol-5-yl)pyrrolidin-2-one] | 50 to 500 nM |
| CN1CC[C@@](O)(c2cc(-c3cccc(-c4ccnc(Nc5ccc(-c6nncn6C)cn5)n4)n3)no2)C1=O [Example 308, (R)-3-Hydroxy-1-methyl-3-(3-(6-(2-((5-(4-methyl-4H-1,2,4-triazol-3-yl)pyridin-2-yl)amino)pyrimidin-4-yl)pyridin-2-yl)isoxazol-5-yl)pyrrolidin-2-one] | 50 to 500 nM |
| C[C@@H](Nc1nccc(-c2cccc(-c3cc([C@]4(O)CCN(C)C4=O)on3)n2)n1)c1cnc2ccccn12 (single isomer, unassigned) [Example 160] | > 500 nM |
| C[C@@H]1OCC[C@@H]1Nc1nccc(-c2cccc(-c3cc([C@]4(O)CCN(C)C4=O)on3)n2)n1 (single isomer, unassigned) [Example 347] | 50 to 500 nM |
| Cc1nn(CC(C)(C)O)cc1Nc1nccc(-c2cccc(-c3cc([C@]4(O)CCN(C)C4=O)on3)n2)n1 [Example 234, (R)-3-Hydroxy-3-(3-(6-(2-((1-(2-hydroxy-2-methylpropyl)-3-methyl-1H-pyrazol-4-yl)amino)pyrimidin-4-yl)pyridin-2-yl)isoxazol-5-yl)-1-methylpyrrolidin-2-one] | < 50 nM |
| CN1CC[C@@](O)(c2cc(-c3cccc(-c4ccnc(Nc5cn(C)nc5OCCO)n4)n3)no2)C1=O [Example 232, (R)-3-Hydroxy-3-(3-(6-(2-((3-(2-hydroxyethoxy)-1-methyl-1H-pyrazol-4-yl)amino)pyrimidin-4-yl)pyridin-2-yl)isoxazol-5-yl)-1-methylpyrrolidin-2-one] | 50 to 500 nM |
| CN1CC[C@@](O)(c2cc(-c3cccc(-c4ccnc(Nc5ncn(C)n5)n4)n3)no2)C1=O [Example 318, (R)-3-Hydroxy-1-methyl-3-(3-(6-(2-((1-methyl-1H-1,2,4-triazol-3-yl)amino)pyrimidin-4-yl)pyridin-2-yl)isoxazol-5-yl)pyrrolidin-2-one] | > 500 nM |
| CCc1c(Nc2nccc(-c3cccc(-c4cc([C@]5(O)CCN(C)C5=O)on4)n3)n2)cnn1C [Example 226, (R)-3-(3-(6-(2-((5-Ethyl-1-methyl-1H-pyrazol-4-yl)amino)pyrimidin-4-yl)pyridin-2-yl)isoxazol-5-yl)-3-hydroxy-1-methylpyrrolidin-2-one] | < 50 nM |
| CN1CC[C@@](O)(c2cc(-c3cccc(-c4ccnc(-n5cc(N)cn5)n4)n3)no2)C1=O [Example 39, (R)-3-(3-(6-(2-(4-Amino-1H-pyrazol-1-yl)pyrimidin-4-yl)pyridin-2-yl)isoxazol-5-yl)-3-hydroxy-1-methylpyrrolidin-2-one] | > 500 nM |
| CC(Nc1nccc(-c2cccc(-c3cc([C@]4(O)CCN(C)C4=O)on3)n2)n1)c1cnco1 (stereo partly drawn) [Example 372, (3R)-3-Hydroxy-1-methyl-3-(3-(6-(2-((1-(oxazol-5-yl)ethyl)amino)pyrimidin-4-yl)pyridin-2-yl)isoxazol-5-yl)pyrrolidin-2-one] | 50 to 500 nM |
| CN1CC[C@@](O)(c2cc(-c3cccc(-c4ccnc(Nc5ccn(C)n5)n4)c3)no2)C1=O [Example 25, (R)-3-Hydroxy-1-methyl-3-(3-(3-(2-((1-methyl-1H-pyrazol-3-yl)amino)pyrimidin-4-yl)phenyl)isoxazol-5-yl)pyrrolidin-2-one] | 50 to 500 nM |
| Cc1c(Nc2nccc(-c3cccc(-c4cc([C@@]5(O)C(=O)N(C)CC5(F)F)on4)n3)n2)cnn1C [Example 223, (R)-3-(3-(6-(2-((1,5-Dimethyl-1H-pyrazol-4-yl)amino)pyrimidin-4-yl)pyridin-2-yl)isoxazol-5-yl)-4,4-difluoro-3-hydroxy-1-methylpyrrolidin-2-one] | < 50 nM |
| CN1CC[C@@](O)(c2cc(-c3cccc(-c4ccnc(NC5(c6cnn(C)c6)CC5)n4)n3)no2)C1=O [Example 45, (R)-3-Hydroxy-1-methyl-3-(3-(6-(2-((1-(1-methyl-1H-pyrazol-4-yl)cyclopropyl)amino)pyrimidin-4-yl)pyridin-2-yl)isoxazol-5-yl)pyrrolidin-2-one] | > 500 nM |
| CN1CC[C@@](O)(c2cc(-c3cccc(-c4ccnc(NC5CCN(CC(F)F)C5)n4)n3)no2)C1=O (stereo partly drawn) [Example 365, (3R)-3-(3-(6-(2-((1-(2,2-Difluoroethyl)pyrrolidin-3-yl)amino)pyrimidin-4-yl)pyridin-2-yl)isoxazol-5-yl)-3-hydroxy-1-methylpyrrolidin-2-one] | > 500 nM |
| CN1CC[C@@](O)(c2cc(-c3cccc(-c4ccnc(NC5COCC5(F)F)n4)n3)no2)C1=O (mixture of isomers) [Example 465, (3R)-3-(3-(6-(2-((4,4-Difluorotetrahydrofuran-3-yl)amino)pyrimidin-4-yl)pyridin-2-yl)isoxazol-5-yl)-3-hydroxy-1-methylpyrrolidin-2-one] | 50 to 500 nM |
| CN1C(=O)[C@](O)(c2cc(-c3cccc(-c4ccnc(Nc5ccn(C)n5)n4)n3)no2)C[C@H]1C(F)(F)F [Example 1, (3R,5S)-3-Hydroxy-1-methyl-3-(3-(6-(2-((1-methyl-1H-pyrazol-3-yl)amino)pyrimidin-4-yl)pyridin-2-yl)isoxazol-5-yl)-5-(trifluoromethyl)pyrrolidin-2-one] | 50 to 500 nM |
| COc1nn(C)cc1Nc1nccc(-c2cccc(-c3cc([C@]4(O)CCN(C)C4=O)on3)c2)n1 [Example 17, (R)-3-Hydroxy-3-(3-(3-(2-((3-methoxy-1-methyl-1H-pyrazol-4-yl)amino)pyrimidin-4-yl)phenyl)isoxazol-5-yl)-1-methylpyrrolidin-2-one] | 50 to 500 nM |
| C[C@@H](Nc1nccc(-c2cccc(-c3cc([C@]4(O)CCN(C)C4=O)on3)n2)n1)C(=O)N1CC(F)(F)C1 [Example 169, (R)-3-(3-(6-(2-(((R)-1-(3,3-Difluoroazetidin-1-yl)-1-oxopropan-2-yl)amino)pyrimidin-4-yl)pyridin-2-yl)isoxazol-5-yl)-3-hydroxy-1-methylpyrrolidin-2-one] | > 500 nM |
| CN1CC[C@@](O)(c2nnc(-c3cccc(-c4ccnc(Nc5cnn(C)c5Cl)n4)n3)s2)C1=O [Example 102, (S)-3-(5-(6-(2-((5-Chloro-1-methyl-1H-pyrazol-4-yl)amino)pyrimidin-4-yl)pyridin-2-yl)-1,3,4-thiadiazol-2-yl)-3-hydroxy-1-methylpyrrolidin-2-one] | 50 to 500 nM |
| C[C@H](Nc1nccc(-c2cccc(-c3cc([C@]4(O)CCN(C)C4=O)no3)n2)n1)c1cnn(C)c1 (single isomer, unassigned) [Example 400] | > 500 nM |
